Assay results from patent US20070191431A1, “2-Amino-5-piperidinylimidazolone compounds and use thereof for beta-secretase modulation” (Wyeth, priority 2005, published 2007).

What was measured:
[1] = biological target: human BACE1 (Homo sapiens, UniProt P56817); test: BACE-1 fluorescent kinetic assay (Example 88); format: biochemical; settings: 10 nM enzyme, 25 μM substrate WABC-6, Na-Acetate pH 4.5, room temperature; read-out: BACE1 (IC50 μM)
Experimental: Evaluation of BACE-1 Binding Affinity of Test Compounds
Fluorescent Kinetic Assay
Dilution and mixing steps: total reaction volume: 100 μL
100 μM substrate dilution in 1× PBS was prepared, and
Fluorescence Readings: Readings at Aex 320 nm and Aem 420 nm are taken every 40 sec for 30 min at room temperature and the linear slope for substrate cleavage rate (vi) determined.

human BACE1, sequence (P56817 46-501): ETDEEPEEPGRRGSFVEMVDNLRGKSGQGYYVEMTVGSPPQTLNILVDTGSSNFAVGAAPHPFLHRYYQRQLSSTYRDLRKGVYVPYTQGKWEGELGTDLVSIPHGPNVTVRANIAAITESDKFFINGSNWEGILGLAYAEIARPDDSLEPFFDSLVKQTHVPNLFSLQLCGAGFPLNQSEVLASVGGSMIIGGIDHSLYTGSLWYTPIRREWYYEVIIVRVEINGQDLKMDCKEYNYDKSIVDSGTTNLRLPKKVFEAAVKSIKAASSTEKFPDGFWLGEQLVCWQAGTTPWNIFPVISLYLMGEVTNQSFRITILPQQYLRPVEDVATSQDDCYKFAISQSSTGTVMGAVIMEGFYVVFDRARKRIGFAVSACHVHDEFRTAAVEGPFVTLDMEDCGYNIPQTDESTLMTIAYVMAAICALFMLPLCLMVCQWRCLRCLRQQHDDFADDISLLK

SMILES | melting point | IC50 [1] [µM]
COc1cccc(C(=O)N2CCC(C3(c4cccc(-c5ccccc5)c4)N=C(N)N(C)C3=O)CC2)c1 (stereo not drawn) [Example 5, 2-amino-5-(1,1′-biphenyl-3-yl)-5-[1-(3-methoxybenzoyl)piperidin-4-yl]-3-methyl-3,5-dihydro-4H-imidazol-4-one] | 131 to 134 °C | 0.01 to 1
CN1C(=O)C(c2cccc(-c3cncnc3)c2)(C2CCN(C(=O)c3ccccc3)CC2)N=C1N (stereo not drawn) [Example 81, 2-amino-5-(1-benzoylpiperidin-4-yl)-3-methy-5-(3-pyrimidin-5-ylphenyl)-3,5-dihydro-4H-imidazol-4-one] | 156 to 158 °C | 0.01 to 1
CN1C(=O)C(c2cccc(-c3ccccc3)c2)(C2CCN(C(=O)c3cccc(C#N)c3)CC2)N=C1N (stereo not drawn) [Example 17, 3-({4-[2-amino-4-(1,1′-biphenyl-3-yl)-1-methyl-5-oxo-4,5-dihydro-1H -imidazol-4-yl]piperidin-1-yl}carbonyl)benzonitrile] | 141 to 143 °C | 1.01 to 3
CCCc1ccc(C(=O)N2CCC(C3(c4cccc(-c5ccccc5)c4)N=C(N)N(C)C3=O)CC2)cc1 (stereo not drawn) [Example 21, 2-amino-5-(1,1′-biphenyl-3-yl)-3-methyl-5-[1-(4-propylbenzoyl)piperidin4-yl]-3,5-dihydro4H-imidazol-4-one] | 133 to 135 °C | 0.01 to 1
COCC(=O)Nc1cccc(C2(C3CCN(C(=O)c4ccc5c(c4)OCO5)CC3)N=C(N)N(C)C2=O)c1 (stereo not drawn) [Example 51] | > 160 °C (dec.) | 0.01 to 1
CCC(CC)C(=O)N1CCC(C2(c3cccc(NC(=O)COC)c3)N=C(N)N(C)C2=O)CC1 (stereo not drawn) [Example 43] | 102 to 105 °C | 1.01 to 3
CN1C(=O)C(c2cccc(-c3ccccc3)c2)(C2CCN(C(=O)c3ccc4c(c3)OCO4)CC2)N=C1N (stereo not drawn) [Example 14, 2-amino-5-[1-(1,3-benzodioxol-5-ylcarbonyl)piperidin-4-yl]-5-(1,1′-biphenyl-3-yl)-3-methyl-3,5-dihydro4H-imidazol-4-one] | 133 to 135 °C | 1.01 to 3
CN1C(=O)C(c2cccc(-c3ccccc3)c2)(C2CCN(C(=O)c3ccccc3)CC2)N=C1N (stereo not drawn) [Example 4, 2-amino-5-(1-benzoylpiperidin-4-yl)-5-(1,1′-biphenyl-3-yl)-3-methyl-3,5-dihydro-4H -imidazol-4-one] | 136 to 137 °C | 0.01 to 1
COCC(=O)Nc1cccc(C2(C3CCN(C(=O)C(C)C)CC3)N=C(N)N(C)C2=O)c1 (stereo not drawn) [Example 42] | 145 to 148 °C | 0.01 to 1
CCCOc1ccc(C(=O)N2CCC(C3(c4cccc(-c5ccccc5)c4)N=C(N)N(C)C3=O)CC2)cc1 (stereo not drawn) [Example 22, 2-amino-5-(1,1′-biphenyl-3-yl)-3-methyl-5-[1-(4-propoxybenzoyl)piperidin4-yl]-3,5-dihydro4H-imidazol-4-one] | 131 to 133 °C | 0.01 to 1
COCC(=O)Nc1cccc(C2(C3CCN(C(=O)C4CCC(=O)O4)CC3)N=C(N)N(C)C2=O)c1 (stereo not drawn) [Example 44] | 118 to 120 °C | 0.01 to 1
CN1C(=O)C(c2cccc(C3CCCCC3)c2)(C2CCN(C(=O)c3ccccc3)CC2)N=C1N (stereo not drawn) [Example 24, 2-amino-5-(1-benzoylpiperidin-4-yl)-5-(3-cyclohexylphenyl)-3-methyl-3,5-dihydr-4H -imidazol-4-one] | 189 to 190 °C | 0.01 to 1
CN1C(=O)C(c2cccc(-c3cccc(Cl)c3)c2)(C2CCN(C(=O)c3ccccc3)CC2)N=C1N (stereo not drawn) [Example 85, 2-amino-5-(1-benzoylpiperidin-4-yl)-5-(3′-chlorobiphenyl-3-yl)-3-methyl-3,5-dihydro-4H-imidazol-4-one] | 165 to 166 °C | 0.01 to 1
COCC(=O)Nc1cccc(C2(C3CCN(C(=O)c4cc5ccccc5o4)CC3)N=C(N)N(C)C2=O)c1 (stereo not drawn) [Example 46] | 139 to 142 °C | 0.01 to 1
CN1C(=O)C(c2cccc(-c3ccccc3)c2)(C2CCN(S(=O)(=O)c3ccccc3)CC2)N=C1N (stereo not drawn) [Example 8, 2-amino-5-(1,1′-biphenyl-3-yl)-3-methyl-5-[1-(phenylsulfonyl)piperidin-4-yl]-3,5-dihydro-4H-imidazol-4-one] | 138 to 139 °C | > 3
CN1C(=O)C(c2cccc(-c3cccnc3F)c2)(C2CCN(C(=O)c3ccccc3)CC2)N=C1N (stereo not drawn) [Example 80, 2-amino-5-(1-benzoylpiperidin-4-yl)-5-[3-(2-fluoropyridin-3-yl)phenyl]-3-methyl-3,5-dihydro-4H-imidazol-4-one] | 152 to 154 °C | 0.01 to 1
CN1C(=O)C(c2cccc(-c3ccccc3)c2)(C2CCN(C(=O)COCc3ccccc3)CC2)N=C1N (stereo not drawn) [Example 6, 2-amino-5-{1-[(benzyloxy)acetyl]piperidin4-yl}-5-(1,1′-biphenyl-3-yl)-3-methyl-3,5-dihydro-4H-imidazol-4-one] | 121 to 124 °C | 1.01 to 3
COCC(=O)Nc1cccc(C2(C3CCN(C(=O)c4ccccc4Cl)CC3)N=C(N)N(C)C2=O)c1 (stereo not drawn) [Example 45] | 130 to 133 °C | 0.01 to 1
COCC(=O)Nc1cccc(C2(C3CCN(C(=O)c4ccoc4)CC3)N=C(N)N(C)C2=O)c1 (stereo not drawn) [Example 53] | 140 to 142 °C | 0.01 to 1
COCC(=O)Nc1cccc(C2(C3CCN(C(=O)CCC(C)C)CC3)N=C(N)N(C)C2=O)c1 (stereo not drawn) [Example 49] | 105 to 107 °C | 0.01 to 1
CN1C(=O)C(c2cccc(-c3cc(F)ccc3F)c2)(C2CCN(C(=O)c3ccccc3)CC2)N=C1N (stereo not drawn) [Example 86, 2-amino-5-(1-benzoylpiperidin-4-y)-5-(2′,5′-difluorobiphenyl-3-yl)-3-methyl-3,5-dihydro-4H-imidazol-4-one] | > 150 °C (dec.) | 0.01 to 1
COCC(=O)Nc1cccc(C2(C3CCN(C(=O)CC4CCCCC4)CC3)N=C(N)N(C)C2=O)c1 (stereo not drawn) [Example 38] | 131 to 133 °C | 0.01 to 1
Cc1cc(C(=O)N2CCC(C3(c4cccc(-c5ccccc5)c4)N=C(N)N(C)C3=O)CC2)cc(Cl)n1 (stereo not drawn) [Example 11, 2-amino-5-(1,1′-biphenyl-3-yl)-5-[1-(2-chloro-6-methylisonicotinoyl)piperidin-4-yl]-3-methyl-3,5-dihydro-4H-imidazol-4-one] | 145 to 147 °C | 1.01 to 3
C#CCCC(=O)N1CCC(C2(c3cccc(NC(=O)COC)c3)N=C(N)N(C)C2=O)CC1 (stereo not drawn) [Example 47] | 135 to 138 °C | > 3
COCC(=O)Nc1cccc(C2(C3CCN(C(=O)c4ccc(C(=O)[O-])cc4)CC3)N=C(N)N(C)C2=O)c1.[Na+] (stereo not drawn) [Example 36, Sodium 4-{[4-(2-Amino4-{3-[(methoxyacetyl)amino]phenyl}-1-methyl-5-oxo-4,5-dihydro-1H-imidazol-4-yl)piperidin-1-yl]carbonyl}benzoate] | > 250 °C | 0.01 to 1
COCC(=O)Nc1cccc(C2(C3CCNCC3)N=C(N)N(C)C2=O)c1 (stereo not drawn) [Example 32, N-[3-(2-Amino-1-methyl-5-oxo4-piperldin-4-yl-4,5-dihydro-1H -imidazol-4-yl)phenYl]-2-methoxyacetamide] | 170 to 174 °C | > 3
COCC(=O)Nc1cccc(C2(C3CCN(C(=O)C4CCCC4)CC3)N=C(N)N(C)C2=O)c1 (stereo not drawn) [Example 40] | 134 to 136 °C | 0.01 to 1
